Source: paper PMC7497403, “Development of Potent PfCLK3 Inhibitors Based on TCMDC-135051 as a New Class of Antimalarials” (Journal of Medicinal Chemistry, 2020)

Tests used:
[1] = test system: PINK; conditions: 1 μM
[2] = molecular target: PRAK (Homo sapiens, UniProt Q8IW41); assay: Kinase screen; type: biochemical
Text: (§1) With verapamil used as a positive control.
(§2) V. Distribution coefficient (LogD7.4)

[3] = molecular target: OSR1 (Homo sapiens, UniProt O95747); assay: Kinase screen; type: biochemical
Text: as §1, §2

[4] = molecular target: PAK6 (Homo sapiens, UniProt Q9NQU5); assay: Kinase screen; type: biochemical
Text: as §1, §2

[5] = molecular target: SIK3 (Homo sapiens, UniProt Q9Y2K2); assay: Kinase screen; type: biochemical
Text: as §1, §2

[6] = molecular target: EF2K (Homo sapiens, UniProt O00418); assay: Kinase screen; type: biochemical
Text: as §1, §2

[7] = molecular target: PIM3 (Homo sapiens, UniProt Q86V86); assay: Kinase screen; type: biochemical
Text: as §1, §2

[8] = molecular target: DDR2 (Homo sapiens, UniProt Q16832); assay: Kinase screen; type: biochemical
Text: as §1, §2

[9] = molecular target: TrkA (Homo sapiens, UniProt P04629); assay: Kinase screen; type: biochemical
Text: as §1, §2

[10] = molecular target: WNK1 (Homo sapiens, UniProt Q9H4A3); assay: Kinase screen; type: biochemical
Text: as §1, §2

[11] = molecular target: PAK4 (Homo sapiens, UniProt O96013); assay: Kinase screen; type: biochemical
Text: as §1, §2

[12] = molecular target: LKB1 (Homo sapiens, UniProt Q15831); assay: Kinase screen; type: biochemical
Text: as §1, §2

[13] = molecular target: BRSK2 (Homo sapiens, UniProt Q8IWQ3); assay: Kinase screen; type: biochemical
Text: as §1, §2

[14] = molecular target: Aurora B (Homo sapiens, UniProt Q96GD4); assay: Kinase screen; type: biochemical
Text: as §1, §2

[15] = molecular target: EPH-A4 (Homo sapiens, UniProt P54764); assay: Kinase screen; type: biochemical
Text: as §1, §2

[16] = molecular target: CSK (Homo sapiens, UniProt P41240); assay: Kinase screen; type: biochemical
Text: as §1, §2

[17] = molecular target: TBK1 (Homo sapiens, UniProt Q9UHD2); assay: Kinase screen; type: biochemical
Text: as §1, §2

[18] = molecular target: IKKb (Homo sapiens, UniProt O14920); assay: Kinase screen; type: biochemical
Text: as §1, §2

[19] = molecular target: TSSK1 (Homo sapiens, UniProt Q9BXA7); assay: Kinase screen; type: biochemical
Text: as §1, §2

[20] = molecular target: PKA (Homo sapiens, UniProt P17612); assay: Kinase screen; type: biochemical
Text: as §1, §2

[21] = molecular target: ABL (Homo sapiens, UniProt P00519); assay: Kinase screen; type: biochemical
Text: as §1, §2

[22] = molecular target: CK2 (Homo sapiens, UniProt P68400); assay: Kinase screen; type: biochemical
Text: as §1, §2

[23] = molecular target: STK33 (Homo sapiens, UniProt Q9BYT3); assay: Kinase screen; type: biochemical
Text: as §1, §2

[24] = molecular target: CHK2 (Homo sapiens, UniProt O96017); assay: Kinase screen; type: biochemical
Text: as §1, §2

[25] = molecular target: EPH-B4 (Homo sapiens, UniProt P54760); assay: Kinase screen; type: biochemical
Text: as §1, §2

[26] = molecular target: ASK1 (Homo sapiens, UniProt Q99683); assay: Kinase screen; type: biochemical
Text: as §1, §2

[27] = molecular target: IGF-1R (Homo sapiens, UniProt P08069); assay: Kinase screen; type: biochemical
Text: as §1, §2

[28] = molecular target: PDGFRA (Homo sapiens, UniProt P16234); assay: Kinase screen; type: biochemical
Text: as §1, §2

[29] = molecular target: MST3 (Homo sapiens, UniProt Q9Y6E0); assay: Kinase screen; type: biochemical
Text: as §1, §2

[30] = molecular target: CAMKKb (Homo sapiens, UniProt Q96RR4); assay: Kinase screen; type: biochemical
Text: as §1, §2

[31] = molecular target: IRAK4 (Homo sapiens, UniProt Q9NWZ3); assay: Kinase screen; type: biochemical
Text: as §1, §2

[32] = molecular target: EIF2AK3 (Homo sapiens, UniProt Q9NZJ5); assay: Kinase screen; type: biochemical
Text: as §1, §2

[33] = molecular target: HER4 (Homo sapiens, UniProt Q15303); assay: Kinase screen; type: biochemical
Text: as §1, §2

[34] = molecular target: TIE2 (Homo sapiens, UniProt Q02763); assay: Kinase screen; type: biochemical
Text: as §1, §2

[35] = molecular target: EPH-A2 (Homo sapiens, UniProt P29317); assay: Kinase screen; type: biochemical
Text: as §1, §2

[36] = molecular target: Lck (Homo sapiens, UniProt P06239); assay: Kinase screen; type: biochemical
Text: as §1, §2

[37] = molecular target: p38b MAPK (Homo sapiens, UniProt Q15759); assay: Kinase screen; type: biochemical
Text: as §1, §2

[38] = molecular target: NEK6 (Homo sapiens, UniProt Q9HC98); assay: Kinase screen; type: biochemical
Text: as §1, §2

[39] = molecular target: PIM1 (Homo sapiens, UniProt P11309); assay: Kinase screen; type: biochemical
Text: as §1, §2

[40] = molecular target: MKK2 (Homo sapiens, UniProt P36507); assay: Kinase screen; type: biochemical
Text: as §1, §2

[41] = molecular target: HIPK3 (Homo sapiens, UniProt Q9H422); assay: Kinase screen; type: biochemical
Text: as §1, §2

[42] = molecular target: GCK (Homo sapiens, UniProt Q12851); assay: Kinase screen; type: biochemical
Text: as §1, §2

IGF-1R, sequence (P08069 31-1367): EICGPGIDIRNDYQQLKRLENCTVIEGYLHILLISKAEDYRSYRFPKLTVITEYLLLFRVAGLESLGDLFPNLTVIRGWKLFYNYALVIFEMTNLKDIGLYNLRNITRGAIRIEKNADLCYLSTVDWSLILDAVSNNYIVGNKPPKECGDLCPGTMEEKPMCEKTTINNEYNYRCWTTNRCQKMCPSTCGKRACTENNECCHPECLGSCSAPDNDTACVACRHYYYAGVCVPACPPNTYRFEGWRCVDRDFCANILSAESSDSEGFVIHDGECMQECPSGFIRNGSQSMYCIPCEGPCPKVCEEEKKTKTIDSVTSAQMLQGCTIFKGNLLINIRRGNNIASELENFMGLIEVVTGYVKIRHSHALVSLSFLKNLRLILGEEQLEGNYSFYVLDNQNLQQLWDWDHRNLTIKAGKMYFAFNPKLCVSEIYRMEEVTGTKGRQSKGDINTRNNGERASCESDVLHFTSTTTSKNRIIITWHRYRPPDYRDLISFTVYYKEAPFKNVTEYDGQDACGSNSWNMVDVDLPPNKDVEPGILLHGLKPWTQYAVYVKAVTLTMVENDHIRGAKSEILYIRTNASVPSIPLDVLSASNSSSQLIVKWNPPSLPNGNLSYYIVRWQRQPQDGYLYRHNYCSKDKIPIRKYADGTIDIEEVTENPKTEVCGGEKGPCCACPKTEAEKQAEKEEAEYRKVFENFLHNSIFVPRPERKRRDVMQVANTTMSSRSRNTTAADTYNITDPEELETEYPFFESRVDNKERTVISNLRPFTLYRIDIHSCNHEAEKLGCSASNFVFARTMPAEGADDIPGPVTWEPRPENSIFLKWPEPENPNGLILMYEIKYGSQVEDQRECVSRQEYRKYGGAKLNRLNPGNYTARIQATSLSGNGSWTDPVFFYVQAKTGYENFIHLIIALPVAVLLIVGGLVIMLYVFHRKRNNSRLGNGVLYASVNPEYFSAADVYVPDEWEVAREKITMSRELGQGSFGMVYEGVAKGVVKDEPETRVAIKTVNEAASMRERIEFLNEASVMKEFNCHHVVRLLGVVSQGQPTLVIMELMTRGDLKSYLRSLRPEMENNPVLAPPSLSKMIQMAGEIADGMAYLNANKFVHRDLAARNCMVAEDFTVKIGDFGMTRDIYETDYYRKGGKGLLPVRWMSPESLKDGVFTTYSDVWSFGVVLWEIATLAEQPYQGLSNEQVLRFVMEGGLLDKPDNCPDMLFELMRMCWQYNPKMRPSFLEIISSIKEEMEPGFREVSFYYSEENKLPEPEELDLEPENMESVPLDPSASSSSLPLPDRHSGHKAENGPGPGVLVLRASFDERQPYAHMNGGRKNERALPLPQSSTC
BRSK2, sequence (Q8IWQ3 whole entry): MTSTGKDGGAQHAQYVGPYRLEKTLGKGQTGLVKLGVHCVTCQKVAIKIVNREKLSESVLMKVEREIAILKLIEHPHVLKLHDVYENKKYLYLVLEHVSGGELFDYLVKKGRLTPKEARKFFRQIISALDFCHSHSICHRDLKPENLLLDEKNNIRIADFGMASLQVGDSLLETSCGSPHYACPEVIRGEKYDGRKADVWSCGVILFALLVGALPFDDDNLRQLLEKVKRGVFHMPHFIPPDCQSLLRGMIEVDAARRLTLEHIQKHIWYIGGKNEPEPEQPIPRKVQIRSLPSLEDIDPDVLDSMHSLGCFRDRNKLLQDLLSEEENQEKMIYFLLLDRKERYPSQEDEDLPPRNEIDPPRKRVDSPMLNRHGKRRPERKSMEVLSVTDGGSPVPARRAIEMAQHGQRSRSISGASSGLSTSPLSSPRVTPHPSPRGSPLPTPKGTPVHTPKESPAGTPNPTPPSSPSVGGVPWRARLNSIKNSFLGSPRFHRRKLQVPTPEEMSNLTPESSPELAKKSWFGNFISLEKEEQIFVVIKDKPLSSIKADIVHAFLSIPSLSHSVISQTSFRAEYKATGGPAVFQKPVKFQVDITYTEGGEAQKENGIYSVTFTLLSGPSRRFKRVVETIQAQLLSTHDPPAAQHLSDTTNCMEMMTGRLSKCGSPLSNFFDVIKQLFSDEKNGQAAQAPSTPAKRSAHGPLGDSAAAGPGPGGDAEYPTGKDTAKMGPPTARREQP
EF2K, sequence (O00418 whole entry): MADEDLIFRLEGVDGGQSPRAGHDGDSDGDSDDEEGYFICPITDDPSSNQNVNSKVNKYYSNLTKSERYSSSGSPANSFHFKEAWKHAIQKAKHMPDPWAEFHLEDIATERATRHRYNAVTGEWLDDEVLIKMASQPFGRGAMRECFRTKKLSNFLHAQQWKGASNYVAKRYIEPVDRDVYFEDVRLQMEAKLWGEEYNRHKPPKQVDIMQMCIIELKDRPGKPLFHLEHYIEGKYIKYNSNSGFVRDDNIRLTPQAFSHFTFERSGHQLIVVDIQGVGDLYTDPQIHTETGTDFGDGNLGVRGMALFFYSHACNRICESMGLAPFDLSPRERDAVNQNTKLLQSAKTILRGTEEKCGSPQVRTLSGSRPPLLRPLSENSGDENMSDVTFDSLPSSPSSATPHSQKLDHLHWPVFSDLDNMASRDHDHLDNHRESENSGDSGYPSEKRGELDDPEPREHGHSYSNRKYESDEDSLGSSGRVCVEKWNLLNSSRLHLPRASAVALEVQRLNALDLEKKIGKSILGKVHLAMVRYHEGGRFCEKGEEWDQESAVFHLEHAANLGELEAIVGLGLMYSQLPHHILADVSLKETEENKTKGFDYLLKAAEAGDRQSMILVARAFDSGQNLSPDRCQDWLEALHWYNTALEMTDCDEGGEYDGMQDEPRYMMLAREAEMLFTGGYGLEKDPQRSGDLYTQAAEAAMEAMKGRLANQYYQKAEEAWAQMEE
IRAK4, sequence (Q9NWZ3 whole entry): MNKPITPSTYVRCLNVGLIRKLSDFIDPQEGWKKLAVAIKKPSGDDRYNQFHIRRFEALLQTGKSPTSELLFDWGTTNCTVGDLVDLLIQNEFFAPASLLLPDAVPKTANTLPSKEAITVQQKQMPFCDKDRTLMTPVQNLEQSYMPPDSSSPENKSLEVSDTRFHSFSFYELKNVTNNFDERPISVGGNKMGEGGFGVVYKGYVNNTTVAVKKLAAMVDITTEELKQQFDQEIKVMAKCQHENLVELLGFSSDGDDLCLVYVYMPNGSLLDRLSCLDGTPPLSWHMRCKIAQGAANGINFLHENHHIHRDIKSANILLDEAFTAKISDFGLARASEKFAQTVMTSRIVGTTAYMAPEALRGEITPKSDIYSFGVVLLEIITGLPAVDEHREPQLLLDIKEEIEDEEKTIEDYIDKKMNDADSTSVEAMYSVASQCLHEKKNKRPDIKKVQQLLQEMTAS
EIF2AK3, sequence (Q9NZJ5 30-1116): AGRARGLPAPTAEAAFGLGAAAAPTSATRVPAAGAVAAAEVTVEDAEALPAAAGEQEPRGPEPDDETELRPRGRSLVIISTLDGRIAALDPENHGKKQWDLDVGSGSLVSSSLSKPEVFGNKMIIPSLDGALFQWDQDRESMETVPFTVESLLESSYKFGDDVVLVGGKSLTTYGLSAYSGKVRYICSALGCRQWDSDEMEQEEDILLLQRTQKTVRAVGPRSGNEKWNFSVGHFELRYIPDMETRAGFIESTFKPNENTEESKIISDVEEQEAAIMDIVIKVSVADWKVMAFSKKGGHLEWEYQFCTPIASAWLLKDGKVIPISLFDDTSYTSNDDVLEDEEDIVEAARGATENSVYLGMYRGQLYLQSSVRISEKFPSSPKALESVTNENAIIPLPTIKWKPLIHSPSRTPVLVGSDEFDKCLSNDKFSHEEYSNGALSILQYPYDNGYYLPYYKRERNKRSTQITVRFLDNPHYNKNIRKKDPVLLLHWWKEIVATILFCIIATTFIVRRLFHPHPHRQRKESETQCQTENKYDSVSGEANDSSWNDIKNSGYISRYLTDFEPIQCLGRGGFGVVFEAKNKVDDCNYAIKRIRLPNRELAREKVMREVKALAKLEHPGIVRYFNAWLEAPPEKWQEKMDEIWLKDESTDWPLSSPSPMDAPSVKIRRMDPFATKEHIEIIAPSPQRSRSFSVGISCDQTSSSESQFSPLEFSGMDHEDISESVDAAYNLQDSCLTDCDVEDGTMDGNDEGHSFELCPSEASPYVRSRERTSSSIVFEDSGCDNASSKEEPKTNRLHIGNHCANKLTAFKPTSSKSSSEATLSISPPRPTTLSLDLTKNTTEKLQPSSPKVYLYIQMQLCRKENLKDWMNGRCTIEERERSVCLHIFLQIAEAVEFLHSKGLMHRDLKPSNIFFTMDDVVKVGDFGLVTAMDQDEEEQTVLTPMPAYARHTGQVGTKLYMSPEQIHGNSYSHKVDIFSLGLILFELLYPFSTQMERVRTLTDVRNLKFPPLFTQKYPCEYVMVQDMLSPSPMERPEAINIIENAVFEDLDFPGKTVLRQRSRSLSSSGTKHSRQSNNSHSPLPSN
PAK6, sequence (Q9NQU5 whole entry): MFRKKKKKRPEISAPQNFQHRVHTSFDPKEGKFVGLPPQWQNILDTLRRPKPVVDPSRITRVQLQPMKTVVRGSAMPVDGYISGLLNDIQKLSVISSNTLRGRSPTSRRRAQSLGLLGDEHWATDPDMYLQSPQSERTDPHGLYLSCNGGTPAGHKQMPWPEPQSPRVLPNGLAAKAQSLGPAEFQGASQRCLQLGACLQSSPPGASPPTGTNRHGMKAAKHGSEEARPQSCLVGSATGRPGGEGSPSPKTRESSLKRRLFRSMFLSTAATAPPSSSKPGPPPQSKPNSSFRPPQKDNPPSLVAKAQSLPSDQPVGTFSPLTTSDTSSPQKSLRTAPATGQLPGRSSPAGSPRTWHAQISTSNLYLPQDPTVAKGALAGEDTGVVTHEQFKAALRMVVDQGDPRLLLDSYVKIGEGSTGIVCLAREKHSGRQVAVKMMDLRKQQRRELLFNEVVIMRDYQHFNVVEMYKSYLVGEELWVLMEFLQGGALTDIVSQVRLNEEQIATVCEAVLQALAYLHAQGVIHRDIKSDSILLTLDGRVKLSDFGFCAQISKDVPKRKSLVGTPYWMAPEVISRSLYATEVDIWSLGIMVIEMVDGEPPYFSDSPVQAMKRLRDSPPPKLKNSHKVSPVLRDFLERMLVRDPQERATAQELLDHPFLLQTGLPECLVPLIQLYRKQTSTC

**Q.** For `CCN(CC)Cc1ccc(OC)c(-c2cc3c(-c4ccc(C(=O)O)c(C(C)C)c4)ccnc3[nH]2)c1` [analogue 1, 4-(2-(5-((Diethylamino)methyl)-2-methoxyphenyl)-1H-pyrrolo[2,3-b]pyridin-4-yl)-2-isopropylbenzoic Acid], which “% Activity” value [1] is on record?
**A.** 106%

**Q.** What about the activity at 1 µM [2] of the same compound?
**A.** 88%

**Q.** And the activity at 1 µM [3]?
**A.** 38%

**Q.** And the activity at 1 µM [4]?
**A.** 92%

**Q.** And the activity at 1 µM [5]?
**A.** 71%

**Q.** And the activity at 1 µM [6]?
**A.** 113%

**Q.** And the activity at 1 µM [7]?
**A.** 80%

**Q.** And the activity at 1 µM [8]?
**A.** 21%

**Q.** And the activity at 1 µM [9]?
**A.** 87%

**Q.** And the activity at 1 µM [10]?
**A.** 105%

**Q.** And the activity at 1 µM [11]?
**A.** 105%

**Q.** What about the activity at 1 µM [12] of the same compound?
**A.** 115%

**Q.** What about the activity at 1 µM [13] of the same compound?
**A.** 74%

**Q.** What about the activity at 1 µM [14] of the same compound?
**A.** 59%

**Q.** And the activity at 1 µM [15]?
**A.** 83%

**Q.** And the activity at 1 µM [16]?
**A.** 74%

**Q.** And the activity at 1 µM [17]?
**A.** 66%

**Q.** What about the activity at 1 µM [18] of the same compound?
**A.** 144%

**Q.** What about the activity at 1 µM [19] of the same compound?
**A.** 55%

**Q.** What about the activity at 1 µM [20] of the same compound?
**A.** 103%

**Q.** And the activity at 1 µM [21]?
**A.** 59%

**Q.** What about the activity at 1 µM [22] of the same compound?
**A.** 90%

**Q.** What about the activity at 1 µM [23] of the same compound?
**A.** 44%

**Q.** What about the activity at 1 µM [24] of the same compound?
**A.** 77%

**Q.** And the activity at 1 µM [25]?
**A.** 82%

**Q.** What about the activity at 1 µM [26] of the same compound?
**A.** 91%

**Q.** And the activity at 1 µM [27]?
**A.** 51%

**Q.** And the activity at 1 µM [28]?
**A.** 133%

**Q.** What about the activity at 1 µM [29] of the same compound?
**A.** 62%

**Q.** And the activity at 1 µM [30]?
**A.** 2%

**Q.** What about the activity at 1 µM [31] of the same compound?
**A.** 24%

**Q.** And the activity at 1 µM [32]?
**A.** 100%

**Q.** And the activity at 1 µM [33]?
**A.** 112%

**Q.** And the activity at 1 µM [34]?
**A.** 120%

**Q.** What about the activity at 1 µM [35] of the same compound?
**A.** 64%

**Q.** And the activity at 1 µM [36]?
**A.** 39%

**Q.** What about the activity at 1 µM [37] of the same compound?
**A.** 112%

**Q.** And the activity at 1 µM [38]?
**A.** 96%

**Q.** And the activity at 1 µM [39]?
**A.** 107%

**Q.** What about the activity at 1 µM [40] of the same compound?
**A.** 17%

**Q.** And the activity at 1 µM [41]?
**A.** 93%

**Q.** And the activity at 1 µM [42]?
**A.** 31%
